# Data taken from patent publication US8796256B2 (Janssen Pharmaceutica NV, priority 2010, dated 2014).
# Molecular target: T1, ERR1 (also known as ERR-α or ERR-1) (Homo sapiens, UniProt P11474)
# T1 sequence (P11474 193-421 limits assumed): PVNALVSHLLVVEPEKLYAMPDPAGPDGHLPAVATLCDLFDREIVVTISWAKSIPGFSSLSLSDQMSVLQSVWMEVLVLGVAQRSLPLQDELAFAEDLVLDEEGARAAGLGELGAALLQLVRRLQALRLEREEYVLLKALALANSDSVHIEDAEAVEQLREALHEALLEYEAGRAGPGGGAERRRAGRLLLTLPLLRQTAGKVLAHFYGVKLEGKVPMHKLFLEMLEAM
# Assay: TR-FRET assay (disruption of co-activator peptide binding to ERR1 LBD)
# Type: biochemical
# Conditions: 6 nM 6His-ERR1LBD, 6 nM GST-SRC-2 peptide; average of 3 independent experiments
# Procedure, shortened: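 Homogeneous TR-FRET measuring displacement of GST-hSRC2 co-activator peptide (6 nM) from His-tagged ERR1 LBD (6 nM), detected with α-GST Eu cryptate (30 nM) and α-His-XL665 (7.5 nM). Buffer 25 mM Tris pH 8, 2.5 mM Hepes, 20 mM KCl, 1 mM DTT, 0.05 mg/mL delipidated BSA; equilibration 4-18 h at 25° C. Hyperbolic dose-response fit, mean of 3 experiments.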
row,EC50,SMILES
1,26 nM,"CN(CCO)CCN1C(=O)S/C(=C\c2ccc3c(cnn3Cc3ccc(Cl)cc3C(F)(F)F)c2)C1=O [Compound 51, (5Z)-5-({1-[4-Chloro-2-(trifluoromethyl)benzyl]-1H-indazol-5-yl}methylidene)-3-{2-[(2-hydroxyethyl)(methyl)amino]ethyl}-1,3-thiazolidine-2,4-dione]"
2,27 nM,"O=C1S/C(=C\c2ccc3c(cnn3Cc3ccc(Cl)cc3C(F)(F)F)c2)C(=O)N1CCNCCO [Compound 52, (5Z)-5-({1-[4-Chloro-2-(trifluoromethyl)benzyl]-1H-indazol-5-yl}methylidene)-3-{2-[(2-hydroxyethyl)amino]ethyl}-1,3-thiazolidine-2,4-dione]"
3,39 nM,"CC(C)C[C@H](N)CN1C(=O)S/C(=C\c2ccc3c(cnn3Cc3ccc(Cl)cc3C(F)(F)F)c2)C1=O [Compound 53, (5Z)-3-[(2S)-2-Amino-4-methylpentyl]-5-({1-[4-chloro-2-(trifluoromethyl)benzyl]-1H-indazol-5-yl}methylidene)-1,3-thiazolidine-2,4-dione]"
4,37 nM,"CC(C)C[C@@H](N)CN1C(=O)S/C(=C\c2ccc3c(cnn3Cc3ccc(Cl)cc3C(F)(F)F)c2)C1=O [Compound 54, (5Z)-3-[(2R)-2-Amino-4-methylpentyl]-5-({1-[4-chloro-2-(trifluoromethyl)benzyl]-1H-indazol-5-yl}methylidene)-1,3-thiazolidine-2,4-dione]"
5,101 nM,"O=C1S/C(=C\c2ccc3c(cnn3Cc3ccc(Cl)cc3C(F)(F)F)c2)C(=O)N1CCNS(=O)(=O)C(F)(F)F [Compound 55, N-{2-[(5Z)-5-({1-[4-Chloro-2-(trifluoromethyl)benzyl]-1H-indazol-5-yl}methylidene)-2,4-dioxo-1,3-thiazolidin-3-yl]ethyl}-1,1,1-trifluoromethanesulfonamide]"
6,22 nM,"N=C(N)NC(=O)CN1C(=O)S/C(=C\c2ccc3c(cnn3Cc3ccc(Cl)cc3C(F)(F)F)c2)C1=O [Compound 56, N-Carbamimidoyl-2-[(5Z)-5-({1-[4-chloro-2-(trifluoromethyl)benzyl]-1H-indazol-5-yl}methylidene)-2,4-dioxo-1,3-thiazolidin-3-yl]acetamide]"
7,59 nM,"O=C(CN1C(=O)S/C(=C\c2ccc3c(cnn3Cc3ccc(Cl)cc3C(F)(F)F)c2)C1=O)N1CCN[C@@H](CO)C1 [Compound 57, (5Z)-5-({1-[4-Chloro-2-(trifluoromethyl)benzyl]-1H-indazol-5-yl}methylidene)-3-{2-[(3R)-3-(hydroxymethyl)piperazin-1-yl]-2-oxoethyl}-1,3-thiazolidine-2,4-dione]"
8,44 nM,"COC1CCN(S(=O)(=O)NC(=O)CN2C(=O)S/C(=C\c3ccc4c(cnn4Cc4ccc(Cl)cc4C(F)(F)F)c3)C2=O)CC1 [Compound 58, 2-[(5Z)-5-({1-[4-chloro-2-(trifluoromethyl)benzyl]-1H-indazol-5-yl}methylidene)-2,4-dioxo-1,3-thiazolidin-3-yl]-N-[(4-methoxypiperidin-1-yl)sulfonyl]acetamide]"
9,57 nM,"CS(=O)(=O)NC(=O)CN1C(=O)S/C(=C\c2ccc3c(cnn3Cc3ccc(C(F)(F)F)cc3C(F)(F)F)c2)C1=O [Compound 60, 2-[(5Z)-5-({1-[2,4-Bis(trifluoromethyl)-benzyl]-1H-indazol-5-yl}methylidene)-2,4-dioxo-1,3-thiazolidin-3-yl]-N-(methyl-sulfonyl)acetamide]"
10,269 nM,"NS(=O)(=O)CN1C(=O)S/C(=C\c2ccc3c(cnn3Cc3ccc(F)cc3C(F)(F)F)c2)C1=O [Compound 61, 1-[(5Z)-5-({1-[4-Fluoro-2-(trifluoromethyl)benzyl]-1H-indazol-5-yl}methylidene)-2,4-dioxo-1,3-thiazolidin-3-yl]methanesulfonamide]"
11,485 nM,"CC(=O)NS(=O)(=O)CN1C(=O)S/C(=C\c2ccc3c(cnn3Cc3ccc(F)cc3C(F)(F)F)c2)C1=O [Compound 64, N-({[(5Z)-5-({1-[4-Fluoro-2-(trifluoromethyl)benzyl]-1H-indazol-5-yl}methylidene)-2,4-dioxo-1,3-thiazolidin-3-yl)methyl}sulfonyl)acetamide]"
12,50 nM,"O=C1OCCC1N1C(=O)S/C(=C\c2ccc3c(cnn3Cc3ccc(C(F)(F)F)cc3C(F)(F)F)c2)C1=O (centres unmarked) [Compound 65, (5Z)-5-({1-[2,4-Bis(trifluoromethyl)benzyl]-1H-indazol-5-yl}methylidene)-3-(2-oxotetrahydrofuran-3-yl)-1,3-thiazolidine-2,4-dione]"
13,16 nM,"O=C1S/C(=C\c2ccc3c(cnn3Cc3ccc(C(F)(F)F)cc3C(F)(F)F)c2)C(=O)N1CCn1cncn1 [Compound 66, (5Z)-5-({1-[2,4-Bis(trifluoromethyl)benzyl]-1H-indazol-5-yl}methylidene)-3-[2-(1H-1,2,4-triazol-1-yl)ethyl]-1,3-thiazolidine-2,4-dione]"
14,620 nM,"O=C1S/C(=C\c2ccc3c(cnn3Cc3ccc(C(F)(F)F)cc3C(F)(F)F)c2)C(=O)N1C1CCNCC1 [Compound 67, (5Z)-5-({1-[2,4-Bis(trifluoromethyl)benzyl]-1H-indazol-5-yl}methylidene)-3-piperidin-4-yl-1,3-thiazolidine-2,4-dione]"
15,124 nM,NS(=O)(=O)CN1C(=O)S/C(=C\c2ccc3c(cnn3Cc3ccc(C(F)(F)F)cc3C(F)(F)F)c2)C1=O [Compound 68]
16,23 nM,"CN1CCC[C@H]1CN1C(=O)S/C(=C\c2ccc3c(cnn3Cc3ccc(C(F)(F)F)cc3C(F)(F)F)c2)C1=O [Compound 69, (5Z)-5-({1-[2,4-Bis(trifluoromethyl)benzyl]-1H-indazol-5-yl}methylidene)-3-{[(2S)-1-methylpyrrolidin-2-yl]methyl}-1,3-thiazolidine-2,4-dione]"
17,48 nM,"O=C(O)C1CC(N2C(=O)S/C(=C\c3ccc4c(cnn4Cc4ccc(C(F)(F)F)cc4C(F)(F)F)c3)C2=O)C1 (centres unmarked) [Compound 70, 3-[(5Z)-5-({1-[2,4-Bis(trifluoromethyl)benzyl]-1H-indazol-5-yl}methylidene)-2,4-dioxo-1,3-thiazolidin-3-yl]cyclobutanecarboxylic acid]"
18,87 nM,"CC(=O)NS(=O)(=O)CN1C(=O)S/C(=C\c2ccc3c(cnn3Cc3ccc(C(F)(F)F)cc3C(F)(F)F)c2)C1=O [Compound 71, N-({[(5Z)-5-({1-[2,4-Bis(trifluoromethyl)benzyl]-1H-indazol-5-yl}methylidene)-2,4-dioxo-1,3-thiazolidin-3-yl]methyl}sulfonyl)acetamide]"
19,110 nM,"O=C1S/C(=C\c2ccc3c(cnn3Cc3ccc(Cl)cc3C(F)(F)F)c2)C(=O)N1CCN1CCCC(F)C1 (centres unmarked) [Compound 74, (5Z)-5-({1-[4-Chloro-2-(trifluoromethyl)benzyl]-1H-indazol-5-yl}methylidene)-3-[2-(3-fluoropiperidin-1-yl)ethyl]-1,3-thiazolidine-2,4-dione]"
20,127 nM,"O=C1S/C(=C\c2ccc3c(cnn3Cc3ccc(Cl)cc3C(F)(F)F)c2)C(=O)N1CCN1CC(F)(F)C1 [Compound 75, (5Z)-5-({1-[4-Chloro-2-(trifluoromethyl)benzyl]-1H-indazol-5-yl}methylidene)-3-[2-(3,3-difluoroazetidin-1-yl)ethyl]-1,3-thiazolidine-2,4-dione]"
21,14 nM,"NC1CCCC(N2C(=O)S/C(=C\c3ccc4c(cnn4Cc4ccc(Cl)cc4C(F)(F)F)c3)C2=O)C1 (centres unmarked) [Compound 76, (5Z)-3-(3-Aminocyclohexyl)-5-({1-[4-chloro-2-(trifluoromethyl)benzyl]-1H-indazol-5-yl}methylidene)-1,3-thiazolidine-2,4-dione]"
22,28 nM,"O=C1S/C(=C\c2ccc3c(cnn3Cc3ccc(Cl)cc3C(F)(F)F)c2)C(=O)N1C1CCCNCC1 (centres unmarked) [Compound 77, (5Z)-3-Azepan-4-yl-5-({1-[4-chloro-2-(trifluoromethyl)benzyl]-1H-indazol-5-yl}methylidene)-1,3-thiazolidine-2,4-dione]"
23,41 nM,"O=C1S/C(=C\c2ccc3c(cnn3Cc3ccc(Cl)cc3C(F)(F)F)c2)C(=O)N1CCN1C[C@@H]2C[C@H]1CN2 [Compound 78, (5Z)-5-({1-[4-Chloro-2-(trifluoromethyl)benzyl]-1H-indazol-5-yl}methylidene)-3-[2-(1S,4S)-(2,5-diazabicyclo[2.2.1]hept-2-yl)ethyl]-1,3-thiazolidine-2,4-dione]"
24,41 nM,"C[C@@H](N)CN1C(=O)S/C(=C\c2ccc3c(cnn3Cc3ccc(C(F)(F)F)cc3C(F)(F)F)c2)C1=O [Compound 80, (5Z)-3-[(2R)-2-Aminopropyl]-5-({1-[2,4-bis(trifluoromethyl)benzyl]-1H-indazol-5-yl}methylidene)-1,3-thiazolidine-2,4-dione]"

row,SMILES,EC50
1,"CN1[C@@H]2CC[C@H]1C[C@H](N1C(=O)S/C(=C\c3ccc4c(cnn4Cc4ccc(C(F)(F)F)cc4C(F)(F)F)c3)C1=O)C2 [Compound 62, (5Z)-5-({1-[2,4-Bis(trifluoromethyl)benzyl]-1H-indazol-5-yl}methylidene)-3-[(3-exo)-8-methyl-8-azabicyclo[3.2.1]oct-3-yl]-1,3-thiazolidine-2,4-dione]",19 nM
2,"O=C1S/C(=C\c2ccc3c(cnn3Cc3ccc(C(F)(F)F)cc3C(F)(F)F)c2)C(=O)N1C1CN2CCC1CC2 (centres unmarked) [Compound 63, (5Z)-3-(1-Azabicyclo[2.2.2]oct-3-yl)-5-({1-[2,4-bis(trifluoromethyl)benzyl]-1H-indazol-5-yl}methylidene)-1,3-thiazolidine-2,4-dione]",20 nM
